According to US20210403443A1, “SUBSTITUTED 1,2,4-OXADIAZOLE, ITS APPLICATION AND A PHARMACEUTICAL PREPARATION COMPRISING IT” (SVENOX PHARMACEUTICALS LLC, priority 2018, published 2021):
In brackets after ≈: the same amount, converted by molar mass.

Tests used:
Assay in all cases: microbe, parasite or virus in culture
Assay type in all cases: cell-based
Conditions in all cases: for MIC: Mycobacterium tuberculosis, 336 h, read-out: Minimum inhibiting concentration of substances with general formula I
[1] = system: M. tuberculosis MDR strain Praha 1
[2] = system: M. tuberculosis MDR strain Praha 4
[3] = system: M. tuberculosis MDR strain Praha 131
[4] = system: M. tuberculosis MDR strain 9449/2007
[5] = system: M. tuberculosis MDR strain 234/2005
[6] = system: M. tuberculosis MDR strain 7357/1998
[7] = system: M. tuberculosis MDR strain 8666/2010

Molecule	Minimum inhibiting concentration of commonly used antibiotics and antituberculosis medicaments [1]	strain resistant or sensitive to the drug [1]	Minimum inhibiting concentration of commonly used antibiotics and antituberculosis medicaments [2]	strain resistant or sensitive to the drug [2]	Minimum inhibiting concentration of commonly used antibiotics and antituberculosis medicaments [3]	strain resistant or sensitive to the drug [3]	Minimum inhibiting concentration of commonly used antibiotics and antituberculosis medicaments [4]	strain resistant or sensitive to the drug [4]	Minimum inhibiting concentration of commonly used antibiotics and antituberculosis medicaments [5]	strain resistant or sensitive to the drug [5]	Minimum inhibiting concentration of commonly used antibiotics and antituberculosis medicaments [6]	strain resistant or sensitive to the drug [6]	Minimum inhibiting concentration of commonly used antibiotics and antituberculosis medicaments [7]	strain resistant or sensitive to the drug [7]	MIC [1] [µM]	MIC [2] [µM]	MIC [3] [µM]	MIC [4] [µM]	MIC [5] [µM]	MIC [6] [µM]	further results
NNC(=O)c1ccncc1 [Isoniazid]	14.6 R μmol · l^−1	14.6 R	14.6 R μmol · l^−1	14.6 R	14.6 R μmol · l^−1	14.6 R	58.3 R μmol · l^−1	58.3 R	14.6 R μmol · l^−1	14.6 R	14.6 R μmol · l^−1	14.6 R	29.2 R μmol · l^−1	29.2 R	–	–	–	–	–	–	–
CC1COc2c(N3CCN(C)CC3)c(F)cc3c(=O)c(C(=O)O)cn1c23 (stereo not drawn) [Ofloxacin]	1.38 C μmol · l^−1	1.38 C	>22.2 R μmol · l^−1	>22.2 R	22.2 R μmol · l^−1	22.2 R	2.75 C μmol · l^−1	2.75 C	0.69 C μmol · l^−1	0.69 C	11.1 R μmol · l^−1	11.1 R	11.1 R μmol · l^−1	11.1 R	–	–	–	–	–	–	–
[H]/N=C(/N)N[C@H]1[C@H](O)[C@@H](O)[C@H](O[C@@H]2O[C@@H](C)[C@](O)(C=O)[C@H]2O[C@@H]2O[C@@H](CO)[C@H](O)[C@@H](O)[C@@H]2NC)[C@@H](N/C(N)=N\[H])[C@@H]1O [Streptomycin]	13.7 R μmol · l^−1	13.7 R	>27.5 R μmol · l^−1	>27.5 R	>27.5 R μmol · l^−1	>27.5 R	>27.5 R μmol · l^−1	>27.5 R	27.5 R μmol · l^−1	27.5 R	>27.5 R μmol · l^−1	>27.5 R	>27.5 R μmol · l^−1	>27.5 R	–	–	–	–	–	–	–
COc1ccc(-c2noc(SCc3cc([N+](=O)[O-])cc([N+](=O)[O-])c3)n2)cc1 [Compound 3]	–	–	–	–	–	–	–	–	–	–	–	–	–	–	1 (≈ 0.388 µg/mL)	0.5 (≈ 0.194 µg/mL)	0.5 (≈ 0.194 µg/mL)	0.5 (≈ 0.194 µg/mL)	0.5 (≈ 0.194 µg/mL)	0.5 (≈ 0.194 µg/mL)	MIC [7]: 0.5 µM (≈ 0.194 µg/mL)
O=[N+]([O-])c1cc(CSc2nc(-c3ccc(F)cc3)no2)cc([N+](=O)[O-])c1 [Compound 8]	–	–	–	–	–	–	–	–	–	–	–	–	–	–	0.5 (≈ 0.188 µg/mL)	0.5 (≈ 0.188 µg/mL)	0.5 (≈ 0.188 µg/mL)	0.5 (≈ 0.188 µg/mL)	0.5 (≈ 0.188 µg/mL)	0.5 (≈ 0.188 µg/mL)	MIC [7]: 0.5 µM (≈ 0.188 µg/mL)
O=[N+]([O-])c1cc(CSc2nc(-c3ccc(Cl)cc3)no2)cc([N+](=O)[O-])c1 [Compound 4]	–	–	–	–	–	–	–	–	–	–	–	–	–	–	2 (≈ 0.786 µg/mL)	0.5 (≈ 0.196 µg/mL)	1 (≈ 0.393 µg/mL)	1 (≈ 0.393 µg/mL)	0.5 (≈ 0.196 µg/mL)	1 (≈ 0.393 µg/mL)	MIC [7]: 0.5 µM (≈ 0.196 µg/mL)
CC[C@@H](CO)NCCN[C@@H](CC)CO [Etambutol]	39.2 R μmol · l^−1	39.2 R	19.6 R μmol · l^−1	19.6 R	39.2 R μmol · l^−1	39.2 R	9.8 C μmol · l^−1	9.8 C	19.6 R μmol · l^−1	19.6 R	19.6 R μmol · l^−1	19.6 R	19.6 R μmol · l^−1	19.6 R	–	–	–	–	–	–	–
Gentamicin	1.05 C μmol · l^−1	1.05 C	0.52 C μmol · l^−1	0.52 C	>8.37 R μmol · l^−1	>8.37 R	1.05 C μmol · l^−1	1.05 C	0.26 C μmol · l^−1	0.26 C	1.05 C μmol · l^−1	1.05 C	2.09 C μmol · l^−1	2.09 C	–	–	–	–	–	–	–
CC(C)/N=c1\cc2n(-c3ccc(Cl)cc3)c3ccccc3nc-2cc1Nc1ccc(Cl)cc1 [Clofazimin]	0.53 R μmol · l^−1	0.53 R	0.53 R μmol · l^−1	0.53 R	0.26 C μmol · l^−1	0.26 C	0.13 C μmol · l^−1	0.13 C	0.06 C μmol · l^−1	0.06 C	0.13 C μmol · l^−1	0.13 C	2.11 R μmol · l^−1	2.11 R	–	–	–	–	–	–	–
NCC[C@H](O)C(=O)N[C@@H]1C[C@H](N)[C@@H](O[C@H]2O[C@H](CN)[C@@H](O)[C@H](O)[C@H]2O)[C@H](O)[C@H]1O[C@H]1O[C@H](CO)[C@@H](O)[C@H](N)[C@H]1O [Amikacin]	0.43 C μmol · l^−1	0.43 C	0.85 C μmol · l^−1	0.85 C	>27.2 R μmol · l^−1	>27.2 R	0.43 C μmol · l^−1	0.43 C	0.43 C μmol · l^−1	0.43 C	0.85 C μmol · l^−1	0.85 C	1.7 C μmol · l^−1	1.7 C	–	–	–	–	–	–	–
O=[N+]([O-])c1cc(CSc2nc(-c3ccc(Br)cc3)no2)cc([N+](=O)[O-])c1 [Compound 9]	–	–	–	–	–	–	–	–	–	–	–	–	–	–	0.5 (≈ 0.219 µg/mL)	0.5 (≈ 0.219 µg/mL)	1 (≈ 0.437 µg/mL)	0.5 (≈ 0.219 µg/mL)	0.5 (≈ 0.219 µg/mL)	1 (≈ 0.437 µg/mL)	MIC [7]: 0.5 µM (≈ 0.219 µg/mL)
O=[N+]([O-])c1cc(CSc2nc(-c3cccc(Cl)c3)no2)cc([N+](=O)[O-])c1 [Compound 5]	–	–	–	–	–	–	–	–	–	–	–	–	–	–	1 (≈ 0.393 µg/mL)	0.5 (≈ 0.196 µg/mL)	1 (≈ 0.393 µg/mL)	1 (≈ 0.393 µg/mL)	0.5 (≈ 0.196 µg/mL)	1 (≈ 0.393 µg/mL)	MIC [7]: 0.5 µM (≈ 0.196 µg/mL)
CO[C@H]1/C=C/O[C@@]2(C)Oc3c(C)c(O)c4c(O)c(c(/C=N/N5CCN(C)CC5)c(O)c4c3C2=O)NC(=O)/C(C)=C\C=C\[C@H](C)[C@H](O)[C@@H](C)[C@@H](O)[C@@H](C)[C@H](OC(C)=O)[C@@H]1C [Rifampicin]	>9.7 R μmol · l^−1	>9.7 R	>9.7 R μmol · l^−1	>9.7 R	>9.7 R μmol · l^−1	>9.7 R	>9.7 R μmol · l^−1	>9.7 R	>9.7 R μmol · l^−1	>9.7 R	>9.7 R μmol · l^−1	>9.7 R	>9.7 R μmol · l^−1	>9.7 R	–	–	–	–	–	–	–
